Test results from article PMC12040169 (PLOS Biology, 2025).
Converted amounts (≈) assume the structure as drawn.

Experiments:
in vitro [1] = assay: in vitro; parameters: Viability of infected HeLa host cells, resazurin conversion, bulk resorufin fluorescence relative to DMSO; conditions: human, hela cells; bulk resorufin, single well
B. adolescentis = tested on: T1, B. adolescentis; assay: microbe, parasite or virus in culture; parameters: Microbial growth in liquid dilution assay, OD600 relative to DMSO control; conditions: Bifidobacterium adolescentis; estimated IC50; read-out: B. adolescentis, IC50 (µM) estimate
T1 construct: DSM 20083
Source text: (§1) Compound effects on commensal microbes in dilution assay As our objective was to discover compounds that inhibit Chlamydia selectively but spare commensal bacteria, we further tested 15 of our top compounds (c1e–c10e and c1v–c5v) against five bacterial species, Escherichia coli, Lactobacillus reuteri, Enterococcus faecalis, Bacteroides thetaiotaomicron, and Bifidobacterium adolescentis, representing the four dominating phyla of the human gut microbiota. […] Exceptions were c3e and c5e, which at 30 µM were inhibitory to some species. […] Of note, c1e–c3e had little or no effect on the growth of an even larger set of species of gut bacteria, also including Blautia coccoides, Prevotella copri, Prevotella histicola, Bacteroides fragilis, and Dubosiella newyorkensis, when tested in radial diffusion assays, in which the bacteria were exposed to compounds for 24–48 h before measurements of growth inhibition zones (S10B Fig and S5G Data).

B. thetaiotaomicron = tested on: T2, B. thetaiotaomicron; assay: microbe, parasite or virus in culture; parameters: Microbial growth in liquid dilution assay, OD600 relative to DMSO control; conditions: Bacteroides thetaiotaomicron; estimated IC50; read-out: B. thetaiotaomicron, IC50 (µM) estimate
T2 construct: DSM 2079
Source text: as §1

E. coli = tested on: T3, E. coli; assay: microbe, parasite or virus in culture; parameters: Microbial growth in liquid dilution assay, OD600 relative to DMSO control; conditions: Escherichia coli; estimated IC50; read-out: E. coli, IC50 (µM) estimate
T3 construct: DSM 301
Source text: as §1

E. faecalis = tested on: T4, E. faecalis; assay: microbe, parasite or virus in culture; parameters: Microbial growth in liquid dilution assay, OD600 relative to DMSO control; conditions: Enterococcus faecalis; estimated IC50; read-out: E. faecalis, IC50 (µM) estimate
T4 construct: DSM 20478
Source text: as §1

L. reuteri = tested on: T5, L. reuteri; assay: microbe, parasite or virus in culture; parameters: Microbial growth in liquid dilution assay, OD600 relative to DMSO control; conditions: Limosilactobacillus reuteri; estimated IC50; read-out: L. reuteri, IC50 (µM) estimate
T5 construct: DSM 20016
Source text: as §1

L. crispatus = tested on: T6, L. crispatus; assay: microbe, parasite or virus in culture; parameters: Microbial growth in liquid dilution assay, OD600 relative to DMSO control; conditions: Lactobacillus crispatus; estimated IC50; read-out: L. crispatus, IC50 (µM) estimate
T6 construct: DSM 20584

L. iners = tested on: T7, L. iners; assay: organism not typed; parameters: Microbial growth in liquid dilution assay, OD600 relative to DMSO control; conditions: estimated IC50; read-out: L. iners, IC50 (µM) estimate
T7 construct: DSM 13335

G. vaginalis = tested on: T8, G. vaginalis; assay: microbe, parasite or virus in culture; parameters: Microbial growth in liquid dilution assay, OD600 relative to DMSO control; conditions: Gardnerella vaginalis, read-out: G. vaginalis, IC50 (µM) estimate
T8 construct: DSM 4944

C. albicans = tested on: T9, C. albicans; assay: microbe, parasite or virus in culture; parameters: Microbial growth in liquid dilution assay, OD600 relative to DMSO control; conditions: Candida albicans, read-out: C. albicans, IC50 (µM) estimate
T9 construct: DSM 1577

[2] = tested on: T10, CTL2-GFP (C. trachomatis L2/434/Bu, GFP-expressing); assay: microbe, parasite or virus in culture; parameters: Intracellular C. trachomatis growth in HeLa cells, bulk GFP fluorescence relative to DMSO; conditions: Chlamydia trachomatis, HeLa, 28.5 h; bulk GFP
T10 construct: L2/434/Bu, GFP-expressing
Protocol: (§2) MICs were calculated as described above.

[3] = tested on: T10, CTL2-GFP (C. trachomatis L2/434/Bu, GFP-expressing); assay: microbe, parasite or virus in culture; parameters: species or system HeLa; Intracellular C. trachomatis growth in HeLa cells, bulk GFP fluorescence relative to DMSO; conditions: Chlamydia trachomatis, 28.5 h; bulk GFP
Protocol: as §2

in vitro [4] = assay: in vitro; parameters: Viability of infected HeLa host cells, resazurin conversion, bulk resorufin fluorescence relative to DMSO; conditions: human, hela cells; bulk resorufin, mean of 3
[5] = tested on: T10, CTL2-GFP (C. trachomatis L2/434/Bu, GFP-expressing); assay: microbe, parasite or virus in culture; parameters: C. trachomatis growth in HeLa, dose-response, mean of bulk GFP fluorescence and imaged total inclusion area; conditions: Chlamydia trachomatis, HeLa, 28.5 h; mean of GFP and inclusion area
Source text: We screened a library of 36,785 small molecules displaying drug-like properties and covering a wide chemical space (Fig 1A and S2A Data). In this process, we also complemented the assay described above with an imaging-based readout (Fig 1B). After measurements of bulk GFP and resorufin fluorescence, cells were fixed, stained with the DNA dye Hoechst, and imaged at a high-content imaging platform to detect chlamydial inclusions (GFP) and host cell nuclei (Hoechst). The total area and number of inclusions in individual wells and the number of nuclei then served as additional proxies for chlamydial growth and host cell viability. […] MICs were calculated as described above.

[6] = tested on: T10, CTL2-GFP (C. trachomatis L2/434/Bu, GFP-expressing); assay: microbe, parasite or virus in culture; parameters: species or system HeLa; C. trachomatis growth in HeLa, dose-response, mean of bulk GFP fluorescence and imaged total inclusion area; conditions: Chlamydia trachomatis, 28.5 h; mean of GFP and inclusion area
How it was run: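 GFP/resorufin bulk fluorescence read → fix → Hoechst stain → high-content imaging. Inclusion total area + count = growth proxy; nuclei count = host viability proxy. MIC calc per earlier method.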

Structure (SMILES)	IC50 (B. adolescentis) [µM]	IC50 (B. thetaiotaomicron) [µM]	IC50 (E. coli) [µM]	IC50 (E. faecalis) [µM]	IC50 (L. reuteri) [µM]	viability at 28.5 h, 0.000416667 µM (in vitro [4]) [%]	viability at 28.5 h, 0.00125 µM (in vitro [4]) [%]	viability at 28.5 h, 0.00375 µM (in vitro [4]) [%]	viability at 28.5 h, 0.0123333 µM (in vitro [4]) [%]	viability at 28.5 h, 0.037 µM (in vitro [4]) [%]	viability at 28.5 h, 0.111 µM (in vitro [4]) [%]	viability at 28.5 h, 0.333 µM (in vitro [4]) [%]	viability at 28.5 h, 1 µM (in vitro [4]) [%]	viability at 28.5 h, 3 µM (in vitro [4]) [%]	viability at 28.5 h, 10 µM (in vitro [4]) [%]	viability at 28.5 h, 30 µM (in vitro [4]) [%]	IC50 [5] [µM]	MIC [6] [µM]	also measured
O=C(c1cccc(S(=O)(=O)F)c1)N1CCCCC1 [CBK074224]	–	–	–	–	–	–	–	–	–	–	–	–	–	–	–	–	–	–	viability at 28.5 h, 10 µM (in vitro [1]): 96.6%
S=P(Oc1ccccc1)(Oc1ccccc1)Oc1ccccc1 [CBK260987]	–	–	–	–	–	–	–	–	–	–	–	–	–	–	–	–	–	–	viability at 28.5 h, 10 µM (in vitro [1]): 87.5%
CCOC(=O)CC(C)(O)P(=O)(OC)OC (stereo not shown) [CBK261287]	–	–	–	–	–	–	–	–	–	–	–	–	–	–	–	–	–	–	viability at 28.5 h, 10 µM (in vitro [1]): 101%
CCc1cccc(OCC(=O)Nc2ccc(S(=O)(=O)Nc3onc(C)c3C)cc2)c1 [c2v]	> 30	> 30	> 30	> 30	> 30	–	–	–	–	–	–	–	–	–	–	–	–	–	IC50 (L. crispatus): > 30 µM; IC50 (L. iners): > 30 µM; IC50 (G. vaginalis): > 30 µM; IC50 (C. albicans): > 30 µM; IC50 [2]: 0.471 µM; MIC [3]: 0.693 µM (≈ 0.298 µg/mL)
Cc1cc(NS(=O)(=O)c2ccc(NC(=O)COc3ccc(Cl)c(C)c3)cc2)no1 [c3v]	> 30	> 30	> 30	> 30	> 30	–	–	–	–	–	–	–	–	–	–	–	–	–	IC50 [2]: 0.773 µM; MIC [3]: 0.829 µM (≈ 0.361 µg/mL)
O=C(CC1CCN(CCc2ccccc2)CC1)Nc1cccc(-n2cccn2)c1 [c4e]	> 30	> 30	> 30	> 30	> 30	92.2	95.9	89.2	92.7	90.6	94.2	86.2	89.9	82.9	88.5	87.2	0.332	1.56 (≈ 0.605 µg/mL)	IC50 (L. crispatus): > 30 µM; IC50 (L. iners): > 30 µM; IC50 (G. vaginalis): > 30 µM; IC50 (C. albicans): > 30 µM
Cc1ccc(C(=O)/C=C/Nc2ccc(S(=O)(=O)Nc3onc(C)c3C)cc2)cc1 [c4v]	> 30	> 30	> 30	> 30	> 30	–	–	–	–	–	–	–	–	–	–	–	–	–	IC50 [2]: 1.32 µM; MIC [3]: 1.88 µM (≈ 0.775 µg/mL)
COc1c(Br)cc2c(cc(C)n2-c2ccccc2)c1OCC(O)CNC(C)C (stereo not shown) [c5e]	10.3	> 30	> 30	> 30	> 30	87.7	89.3	86.3	90.9	88.9	91.6	87.6	92.4	89.5	97	0	0.375	0.767 (≈ 0.343 µg/mL)	–
CCc1nnc(NS(=O)(=O)c2ccc(NC(=O)COc3ccc4ccccc4c3)cc2)s1 [c5v]	> 30	> 30	> 30	> 30	> 30	–	–	–	–	–	–	–	–	–	–	–	–	–	IC50 [2]: 1.43 µM; MIC [3]: 2.24 µM (≈ 1.05 µg/mL)
CNC(=S)N1CCN(c2nsc3ccccc23)CC1 [c6e]	> 30	> 30	> 30	> 30	> 30	103	100	99.1	101	97.3	105	101	108	103	102	76	0.413	0.771 (≈ 0.225 µg/mL)	–
N#Cc1c(Nc2cccc(C(F)(F)F)c2)sc(C(=O)c2ccc3c(c2)OCO3)c1N [c8e]	> 30	> 30	> 30	> 30	> 30	88	94.7	88.4	85.7	86	87.3	85.7	94.3	81.6	77.1	62.5	0.567	0.936 (≈ 0.404 µg/mL)	–
O=C(Nc1ccc(F)c(F)c1)NC1CCC2CN(CCOc3ccccc3)CC2C1 (stereo not shown) [c9e]	> 30	> 30	> 30	> 30	> 30	90.2	92.6	90.8	91.5	89	92	91.6	94.6	92.9	95.3	102	0.641	2.63 (≈ 1.09 µg/mL)	–
O=C(N/N=C/c1ccc(Sc2cccc3cccnc23)o1)c1cccc(F)c1 [c10e]	> 30	> 30	> 30	> 30	> 30	84.5	93.8	84.5	91.6	82.9	92.9	88	94.1	89.3	89.9	81.1	0.828	5.57 (≈ 2.18 µg/mL)	–
Cn1cc(C(c2ccc(OCC(=O)O)cc2)c2cn(C)c3ccccc23)c2ccccc21 [c48e]	–	–	–	–	–	87.9	89.6	87.2	88.7	88.5	89.5	89.6	93.9	93.8	97.6	87.9	6.69	8.4 (≈ 3.56 µg/mL)	–
